Legend:
BV-2 cells = experiment: TNFα release from BV-2 cells exposed to MMP-3 or MPP (Luminex); assay type: cell-based
Method: FIG. 6. MMP3-induces TNFα release in BV2 cells. […] After 24 h, the amount of TNFa released into the extracellular medium were determined in Luminex assays (see methods for details). n=6 ** p<0.01 compared to control.
(§1) Microglial cells are the primary immune cells in the CNS and are the major source of TNFα during neuroinflammation. Therefore, in this section, we examined the possible mechanisms that could regulate TNFα release during microglial activation. In particular, we examined whether PKCδ plays any role in the production and release of cytokines. For these studies, we used LPS as a microglial activator on BV2 cells, a widely used microglial cell line. BV-2 cells were exposed to LPS (1 μg/ml) in the presence or absence of PKCδ inhibitor rottlerin (1-3 μM). […] After 16 hr, cell-free supernatants were collected and TNFα levels were quantified using a multiplex bead-based luminex® assay system, as described in the methods.
Matrix metalloproteinases (MMPs) are a family of highly homologous protein-degrading zinc dependent endopeptidases. […] Therefore, we examined if MMP-3 could trigger TNFα release in BV-2 cells. […] Following 24 hr of MMP-3 treatment, supernatants were collected from extracellular medium and TNFα levels were determined using a Luminex immunoassay. […]

BV-2 microglia = experiment: LPS induced cytokine release in BV-2 microglia (Luminex immunoassay); assay type: cell-based; conditions: BV-2 cells
Method: FIG. 1. […] BV-2 microglia were exposed to 1 μg/ml LPS with and without rottlerin (1 to 3 μM) for 16 hrs and cell free supernatants were collected.
BV-2 microglia were transfected with 20 nM PKCδ siRNA and non-specific siRNA. 24 hr later transfected cells were treated with LPS (1 μg/ml) for 16 hrs and cell free supernatants were collected. Specificity of PKCδ suppression was assessed by western blotting.
as §1
In this experiment, we examined whether PKCδ-siRNA mediated knockdown of PKCδ, would suppress LPS-induced TNFα release in BV-2 cells.

primary mouse microglia = experiment: LPS-induced cytokine release from primary mouse microglia (Luminex immunoassay); assay type: cell-based
Method: FIG. 8. Effect of PKCδ inhibitor rottlerin on LPS-induced TNFα release from primary mouse microglia. Primary microglia were treated with 100 ng/ml LPS for 24 hr in the presence of PKCδ inhibitor rottlerin (1 μM and 3 μM). TNFα levels in the culture medium were quantified using a multiplex bead-based luminex® immunoassay. *** p<0.001 compared to controls; […] ### p<0.001 compared to LPS treatment; N=5.
(§2) FIG. 10. PKCδ inhibitor rottlerin suppresses pro-inflammatory cytokine release in primary mouse microglia. Primary microglia were isolated by differential adherence from post-natal mixed-glial cultures and purity verified to be more than 95% by immunocytochemistry. Primary microglia were treated with LPS (100 ng/ml) for 24 hrs or pre-treated with the PKCδ inhibitor rottlerin (1 μM) and then treated with LPS. After treatment, supernatants were collected and proinflammatory cytokine levels were assayed using a multiplexed luminex assay.
To extend the results obtained with the BV2 microglial cell line to primary microglia, we performed some preliminary studies in primary microglia isolated from post-natal day 2 (PND-2) C57 black mice as described previously (Floden et al. 2006). Briefly, the brain tissues from PND-2 mice were gently triturated in ice-cold Ca^2+ and Mg^2+-free HBSS. The cells were spun down and cultured using DMEM/F-12 medium containing 10% heat-inactivated FBS, antibiotics and essential nutrients, as described previously (Liu et al. 2002). After 12-14 days, microglia were harvested by the differential shaking method (350 rpm for 4 hr) and grown on poly-D lysine coated 24-well plates. Primary microglia were then fixed with 4% paraformaldehyde and processed for immunohistochemical staining using CD 11b (microglial marker) monoclonal antibody followed by Alexa 568-conjugated secondary antibody (red). Nuclei were stained with TO-PRO-3 dye (blue). The cells were viewed using a Nikon TE2000 microscope, and images were captured by SPOT digital camera. […] Additionally, we have established a microglia isolation procedure using magnetic labeled CD11b (MACs CD11b+) microbeads followed by AutoMACS cell sorting, which also yielded over 95% pure microglia.
We extended this study to primary microglia. CD11b+ primary microglia cultures were prepared, as described in the previous section. The primary microglial cultures were treated with 100 ng/ml LPS for 24 hr in the presence of various doses of the PKCδ inhibitor rottlerin (1 μM and 3 μM). TNFα levels in the culture medium were quantified using a multiplex bead-based Luminex® immunoassay. […] 3 μM rottlerin reduced LPS-induced TNFα release by 75%. Consistent with the BV2 cell line data presented in the original proposal, the new results provide further evidence that PKCδ can regulate TNFα release in primary microglia during neuroinflammation.
as §2, with “microglia. Primary Microglia were isolated” for “microglia. Primary microglia were isolated”

PKCδ = conditions: dose range 1-3 μM; cited from earlier work
[1] = test system: nigral dopaminergic neurons; conditions: MPTP-induced animal model of Parkinson's disease; cited from earlier work
[2] = dose range 1-3 μM; cited from earlier work
PKCδ promoter = PKCδ promoter luciferase reporter assay in BV-2 cells; assay type: cell-based, mouse
Source text: FIG. 4. PKCδ promoter structure and site-directed mutagenesis of NFkB binding sites. (A) The ˜2 kb fragment of mouse PKCδ promoter region (relative to the transcription start site) was cloned using genomic DNA prepared from MN9D cells by the fusion PCR technique. PKCδ promoter fragment was cloned into promoter-less pGL3-basic vector with a luciferase reporter gene (Luc). (B). Site-specific mutagenesis of two NFkB sites present in the PKCδ promoter region.
FIG. 5. Mutation of NFkB sites block TNFa induced PKCδ promoter activity. Briefly, BV2 cells, were transfected with promoter constructs coding for native or NFkB mutated PKCδ promoter (see FIG. 10). 12 h after transfection, cells were exposed to 30 ng/ml TNF with or without etanercept (ETA). 24 h later, cell lsyates were subject to luciferase assay.
Since PKCδ upregulation was observed during neuroinflammation (FIG. 4A), we sought to determine mechanisms that regulate PKCδ expression via transcriptional activation. We first cloned the full-length mouse PKCδ promoter (2 Kb) from genomic DNA using the fusion PCR technique (FIG. 5A). The resulting PKCδ promoter 2 Kb fragment was cloned into the promoter-less pGL3-luciferase reporter vector. Binding of the transcription factors to the PKCδ promoter region would result in the expression of luciferase enzyme. […]

[3] = LPS and rottlerin treated samples, data not shown
[4] = LPS-stimulated primary mouse microglia

C[n+]1ccc(-c2ccccc2)cc1 [MPP, 1-methyl-4-phenylpyridinium]
TNFα release from BV-2 cells (BV-2 cells; 24 hr exposure to 300 μM, data not shown): failed to release TNFα

CC(=O)c1c(O)c(C)c(O)c(Cc2c(O)c3c(c(C(=O)/C=C/c4ccccc4)c2O)OC(C)(C)C=C3)c1O [rottlerin, 3-[(8-Cinnamoyl-5,7-dihydroxy-2,2-dimethyl-2H-1-benzopyran-6-yl)methyl]-2′,4′,6′-trihydroxy-5-methylaceophenone]
LPS-induced TNFα release (BV-2 microglia; LPS 1 μg/ml, rottlerin 1-3 μM, 16 hr): dose-dependently blocked
LPS-induced IL-6 levels (BV-2 microglia; [3]): no effect
LPS-induced IL-12 levels (BV-2 microglia; [3]): no effect
release of IL-6 (primary mouse microglia; [4]): decrease
release of IL-12 (primary mouse microglia; [4]): decrease
reduction of LPS-induced TNFα release (primary mouse microglia; primary microglia, 100 ng/ml LPS 24 hr, 3 μM rottlerin): 75%
LPS-induced TNFα levels (primary mouse microglia; primary microglia, 100 ng/ml LPS 24 hr, rottlerin 1 μM and 3 μM, dose dependent): significantly suppressed
pro-inflammatory cytokine release (primary mouse microglia; primary microglia, pre-treated with rottlerin 1 μM, LPS 100 ng/ml 24 hrs): suppresses
PKCδ inhibition (PKCδ): effectively inhibits PKCδ
nigral dopaminergic neuronal death [1]: protects
toxicity [2]: does not cause any toxicity

Etanercept
TNFα-induced PKCδ promoter activity (PKCδ promoter; BV-2 cells, 30 ng/ml TNF with etanercept, 24 h, luciferase): blocked

ProMMP3: inactive proMMP-3
levels of TNFα compared to control (BV-2 cells; BV-2 cells, 400 ng/ml, 24 hr): did not induce any significant levels

TNFα
PKCδ promoter activity (PKCδ promoter; BV-2 cells expressing 148 bp minimal PKCδ promoter construct, 30 ng/ml TNF): significant increase
